The values below come from PMC9316761, “Thiosemicarbazide-Substituted Coumarins as Selective Inhibitors of the Tumor Associated Human Carbonic Anhydrases IX and XII” (Molecules, 2022).

Structures are written as SMILES. Bounds are passed on as bounds.

In one data set the target is T1, hCA IX (Homo sapiens, UniProt Q16790).
T1 construct: made in house
Nature of the data set: stopped flow CO2 hydrase assay, hCA IX. Format: biochemical. As to conditions: for Ki: mean from 3 assays, errors ±5–10%, 6 h preincubation; for fold loss of hCA IX inhibition potency relative to 14a: Ki ratio versus 14a; for fold increase of hCA IX Ki relative to the 4-iodo derivative 18a: Ki ratio versus 18a; for fold more potent on hCA IX than 6-substituted counterpart: 7-substituted versus 6-substituted regioisomer (20a, 22a).

The target of a further data set is T2, hCA II (Homo sapiens, UniProt P00918).
T2 construct: made in house
Put plainly: stopped flow CO2 hydrase assay, hCA II. Format: biochemical. The conditions noted are these: mean from 3 assays, errors ±5–10%; 6 h preincubation.

For the next data set, the target named is T3, hCA XII (Homo sapiens, UniProt O43570).
T3 construct: made in house
Put plainly: stopped flow CO2 hydrase assay, hCA XII. It counts as biochemical. The conditions noted are these: for fold more effective on hCA XII than 6-substituted counterpart: 7-substituted versus 6-substituted regioisomer (20a, 21a).

The next data set addresses T4, hCA I (Homo sapiens, UniProt P00915).
T4 construct: made in house
Nature of the data set: stopped flow CO2 hydrase assay, hCA I. Format: biochemical. As to conditions: mean from 3 assays, errors ±5–10%; 6 h preincubation.

T3 sequence (O43570 25-354): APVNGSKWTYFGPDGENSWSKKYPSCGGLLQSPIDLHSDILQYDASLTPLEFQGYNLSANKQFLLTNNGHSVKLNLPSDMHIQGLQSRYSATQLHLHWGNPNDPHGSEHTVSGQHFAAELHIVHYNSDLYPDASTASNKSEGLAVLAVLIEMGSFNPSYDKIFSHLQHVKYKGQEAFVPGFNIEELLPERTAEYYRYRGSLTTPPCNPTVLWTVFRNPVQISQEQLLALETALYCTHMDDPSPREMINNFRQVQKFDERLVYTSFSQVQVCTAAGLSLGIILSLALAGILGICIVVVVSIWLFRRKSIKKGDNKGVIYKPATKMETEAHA
T4 sequence (P00915 whole entry): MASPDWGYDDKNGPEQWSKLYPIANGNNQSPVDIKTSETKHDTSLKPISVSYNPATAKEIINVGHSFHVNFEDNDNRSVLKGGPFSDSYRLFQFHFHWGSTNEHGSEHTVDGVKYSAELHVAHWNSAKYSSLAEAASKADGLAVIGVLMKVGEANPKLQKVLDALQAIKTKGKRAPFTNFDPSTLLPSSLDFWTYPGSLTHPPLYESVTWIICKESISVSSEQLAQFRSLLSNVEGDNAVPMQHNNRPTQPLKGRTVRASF

`O=C(COc1ccc2oc(=O)ccc2c1)NNC(=S)Nc1ccccc1` [Compound 14a, N-Phenyl-2-(2-((2-oxo-2H-chromen-6-yl)oxy)acetyl)hydrazine-1-carbothioamide] yielded a melting point of 173 to 175 °C. Moreover, the “fold more potent on hCA IX than on hCA XII” value on hCA IX (Ki hCA XII / Ki hCA IX) was 84 fold. For the same compound, on hCA IX, the Ki amounted to 8.8 nM. At hCA II, the Ki is greater than 10000 nM. In addition, the Ki on hCA XII was 739 nM. This compound also had a Ki on hCA I greater than 10000 nM.

`O=C(COc1ccc2ccc(=O)oc2c1)NNC(=S)Nc1ccccc1` [Compound 14b, N-Phenyl-2-(2-((2-oxo-2H-chromen-7-yl)oxy)acetyl)hydrazine-1-carbothioamide] displayed a melting point of 155 to 156 °C. Further, on hCA IX, the “fold loss of hCA IX inhibition potency relative to 14a” value stood at 5.2 fold and the Ki was determined as 46 nM. At hCA II, this compound gave a Ki greater than 10000 nM. Moreover, the inhibitory constant (Ki) on hCA XII was 743 nM. In addition, the Ki at hCA I is greater than 10000 nM.

`Cc1ccc(NC(=S)NNC(=O)COc2ccc3oc(=O)ccc3c2)cc1` [Compound 15a, N-(p-Tolyl)-2-(2-((2-oxo-2H-chromen-6-yl)oxy)acetyl)hydrazine-1-carbothioamide]: the melting point was 167 to 169 °C. Besides, at hCA IX, the “fold loss of hCA IX inhibition potency relative to 14a” value is given as 26.6 fold and the Ki turned out to be 234 nM. For the same compound, the Ki at hCA II was greater than 10000 nM. Besides, the Ki at hCA XII is 709 nM. The Ki at hCA I is greater than 10000 nM.

For the compound `Cc1ccc(NC(=S)NNC(=O)COc2ccc3ccc(=O)oc3c2)cc1` [Compound 15b, N-(p-Tolyl)-2-(2-((2-oxo-2H-chromen-7-yl)oxy)acetyl)hydrazine-1-carbothioamide], the melting point is 147 to 149 °C (dec.). The “fold increase of hCA IX Ki relative to 14b” value on hCA IX (Ki ratio versus 14b) came to 1.7 fold. The affinity on hCA IX corresponds to a Ki of 78 nM. This compound had a Ki at hCA II greater than 10000 nM. Further, at hCA XII, the affinity corresponds to a Ki of 684 nM. For the same compound, the Ki at hCA I was greater than 10000 nM.

`O=C(COc1ccc2oc(=O)ccc2c1)NNC(=S)Nc1ccc(Cl)cc1` [Compound 16a, N-(4-Chlorophenyl)-2-(2-((2-oxo-2H-chromen-6-yl)oxy)acetyl)hydrazine-1-carbothioamide] gave a melting point of 163 to 165 °C. At hCA IX, this compound registered a Ki of 48 nM. The same compound came in with a Ki at hCA II greater than 10000 nM. This compound had a Ki at hCA XII of 608 nM. Also, the Ki at hCA I was greater than 10000 nM.

`O=C(COc1ccc2ccc(=O)oc2c1)NNC(=S)Nc1ccc(Cl)cc1` [Compound 16b, N-(4-Chlorophenyl)-2-(2-((2-oxo-2H-chromen-7-yl)oxy)acetyl)hydrazine-1-carbothioamide] yielded a melting point of 202 to 203 °C. This compound registered a Ki on hCA IX of 55 nM. Besides, the Ki at hCA II was greater than 10000 nM. At hCA XII, this compound came in with a Ki of 866 nM. The compound also gave a Ki at hCA I greater than 10000 nM.

`O=C(COc1ccc2oc(=O)ccc2c1)NNC(=S)Nc1ccc(F)cc1` [Compound 17a, N-(4-Fluorophenyl)-2-(2-((2-oxo-2H-chromen-6-yl)oxy)acetyl)hydrazine-1-carbothioamide] showed a melting point of 181 to 183 °C. For the same compound, the Ki on hCA IX is 39 nM. At hCA II, this compound had a Ki greater than 10000 nM. This compound registered a Ki at hCA XII of 494 nM. For the same compound, the Ki at hCA I was greater than 10000 nM.

With `O=C(COc1ccc2ccc(=O)oc2c1)NNC(=S)Nc1ccc(F)cc1` [Compound 17b, N-(4-Fluorophenyl)-2-(2-((2-oxo-2H-chromen-7-yl)oxy)acetyl)hydrazine-1-carbothioamide], the melting point was 119 to 121 °C (dec.). At hCA IX, this compound had a Ki of 64 nM. This compound registered a Ki on hCA II greater than 10000 nM. This compound also gave a Ki on hCA XII of 745 nM. In addition, the Ki on hCA I is greater than 10000 nM.

In turn, `O=C(COc1ccc2oc(=O)ccc2c1)NNC(=S)Nc1ccc(I)cc1` [Compound 18a, N-(4-Iodophenyl)-2-(2-((2-oxo-2H-chromen-6-yl)oxy)acetyl)hydrazine-1-carbothioamide] showed a melting point of 160 to 162 °C. This compound also displayed a Ki at hCA IX of 9.6 nM. Moreover, on hCA II, the Ki is greater than 10000 nM. On hCA XII, the affinity, expressed as Ki, was 8.4 nM. Moreover, the Ki at hCA I is greater than 10000 nM.

With `O=C(COc1ccc2ccc(=O)oc2c1)NNC(=S)Nc1ccc(I)cc1` [Compound 18b, N-(4-Iodophenyl)-2-(2-((2-oxo-2H-chromen-7-yl)oxy)acetyl)hydrazine-1-carbothioamide], the melting point lay in the range of 164 to 166 °C. The compound also showed a Ki on hCA IX of 721 nM. At hCA II, the Ki was greater than 10000 nM. The same compound displayed a Ki at hCA XII of 7.5 nM. This compound gave an inhibition constant Ki at hCA I greater than 10000 nM.

Compound `O=C(COc1ccc2oc(=O)ccc2c1)NNC(=S)Nc1cccc(I)c1` [Compound 19a, N-(3-Iodophenyl)-2-(2-((2-oxo-2H-chromen-6-yl)oxy)acetyl)hydrazine-1-carbothioamide] gave a melting point of 144 to 146 °C. Further, the Ki on hCA IX is 9.6 nM. Further, on hCA II, the Ki was greater than 10000 nM. The same compound displayed an inhibitory constant (Ki) at hCA XII of 79 nM. Moreover, the inhibition constant Ki on hCA I is greater than 10000 nM.

Regarding `O=C(COc1ccc2ccc(=O)oc2c1)NNC(=S)Nc1cccc(I)c1` [Compound 19b, N-(3-Iodophenyl)-2-(2-((2-oxo-2H-chromen-7-yl)oxy)acetyl)hydrazine-1-carbothioamide], the melting point fell in the range of 168 to 169 °C. The Ki at hCA IX amounted to 9.4 nM. Further, at hCA II, the Ki was greater than 10000 nM. The compound further displayed a Ki at hCA XII of 573 nM. This compound returned a Ki at hCA I greater than 10000 nM.

Consider `O=C(COc1ccc2oc(=O)ccc2c1)NNC(=S)Nc1ccc(C(F)(F)F)cc1` [Compound 20a, N-(4-(Trifluoromethyl)phenyl)-2-(2-((2-oxo-2H-chromen-6-yl)oxy)acetyl)hydrazine-1-carbothioamide], for which, at hCA IX, the “fold increase of hCA IX Ki relative to the 4-iodo derivative 18a” value worked out at 9.6 fold. Further, the Ki was 92 nM at hCA IX, greater than 10000 nM at hCA II, 306 nM on hCA XII and greater than 10000 nM on hCA I.

As to `O=C(COc1ccc2ccc(=O)oc2c1)NNC(=S)Nc1ccc(C(F)(F)F)cc1` [Compound 20b, N-(4-(Trifluoromethyl)phenyl)-2-(2-((2-oxo-2H-chromen-7-yl)oxy)acetyl)hydrazine-1-carbothioamide], on hCA IX, the “fold more potent on hCA IX than 6-substituted counterpart” value was found to be 1.3 fold. Moreover, the Ki on hCA IX is 70 nM; on hCA II, greater than 10000 nM; on hCA XII, 56.6 nM; on hCA I it was greater than 10000 nM. Also, on hCA XII, the “fold more effective on hCA XII than 6-substituted counterpart” value is 5.4 fold.

`O=C(COc1ccc2oc(=O)ccc2c1)NNC(=S)Nc1cccc([N+](=O)[O-])c1` [Compound 21a, N-(3-Nitrophenyl)-2-(2-((2-oxo-2H-chromen-6-yl)oxy)acetyl)hydrazine-1-carbothioamide] came in with a melting point of 210 to 212 °C. The Ki on hCA IX amounted to 71 nM. The Ki at hCA II is greater than 10000 nM. This compound also gave a Ki at hCA XII of 328 nM. The compound also gave a Ki at hCA I greater than 10000 nM.

Compound `O=C(COc1ccc2ccc(=O)oc2c1)NNC(=S)Nc1cccc([N+](=O)[O-])c1` [Compound 21b, N-(3-Nitrophenyl)-2-(2-((2-oxo-2H-chromen-7-yl)oxy)acetyl)hydrazine-1-carbothioamide] had a melting point of 214 to 215 °C. The affinity at hCA IX corresponds to a Ki of 9.1 nM. This compound gave a Ki on hCA II greater than 10000 nM. Besides, on hCA XII, the Ki came to 8.6 nM and the “fold more effective on hCA XII than 6-substituted counterpart” value was 38.2 fold. The same compound gave a Ki at hCA I greater than 10000 nM.

Consider `CSc1ccc(NC(=S)NNC(=O)COc2ccc3oc(=O)ccc3c2)cc1` [Compound 22a, N-(4-(Methylthio)phenyl)-2-(2-((2-oxo-2H-chromen-6-yl)oxy)acetyl)hydrazine-1-carbothioamide], for which the melting point lay in the range of 148 to 150 °C. Also, on hCA IX, the “fold increase of hCA IX Ki relative to the 4-iodo derivative 18a” value was 5.9 fold and the Ki was found to be 57 nM. The inhibition constant Ki at hCA II is greater than 10000 nM. This compound gave a Ki on hCA XII of 4 nM. Further, the “fold less effective on hCA IX than on hCA XII” value on hCA XII (Ki hCA IX / Ki hCA XII) amounted to 14 fold. Moreover, at hCA I, the Ki is greater than 10000 nM.

In turn, `CSc1ccc(NC(=S)NNC(=O)COc2ccc3ccc(=O)oc3c2)cc1` [Compound 22b, N-(4-(Methylthio)phenyl)-2-(2-((2-oxo-2H-chromen-7-yl)oxy)acetyl)hydrazine-1-carbothioamide] had a melting point of 163 to 164 °C. Moreover, at hCA IX, the “fold more potent on hCA IX than 6-substituted counterpart” value stood at 1.7 fold and the Ki is 33 nM. The inhibition constant Ki on hCA II is greater than 10000 nM. The compound further showed a Ki at hCA XII of 4.6 nM. Further, the Ki at hCA I was greater than 10000 nM.

The compound `N#Cc1ccc(NC(=S)NNC(=O)COc2ccc3ccc(=O)oc3c2)cc1` [Compound 23b, N-(4-Cyanophenyl)-2-(2-((2-oxo-2H-chromen-7-yl)oxy)acetyl)hydrazine-1-carbothioamide] returned a melting point of 224 to 226 °C. For the same compound, at hCA IX, the inhibition constant (Ki) was found to be 437 nM. The compound further showed a Ki on hCA II greater than 10000 nM. This compound returned a Ki at hCA XII of 473 nM. The same compound had a Ki at hCA I greater than 10000 nM.

As a reminder, the melting point is the temperature of the solid-liquid transition. As a reminder, the Ki is a measure of affinity in units of concentration, obtained from inhibition or displacement. Read a low Ki as tighter binding.
